The record followed here is ChEMBL document CHEMBL5257089, “Gamabufotalin Induces Apoptosis and Cytoprotective Autophagy through the mTOR Signaling Pathway in Hepatocellular Carcinoma” (J Nat Prod, 2023).

Calls of active or inactive are those of the source. The calls are words filed in the database; no cut-off is given here.

Experiment [1] has as its system Huh-7. Nature of the experiment: Induction of autophagic flux in human Huh-7 cells harbouring mCherry-egfp-LC3 assessed as reduction in number of yellow puncta ratio at 10 nM incubated for 15 mins in presence of gamabufotalin by laser scanning confocal microscopic analysis. The class given is functional, cell-based.
For experiment [2], the system named is Huh-7. In words: Induction of apoptosis in human Huh-7 cells assessed as decrease in bcl-2 level at 10 nM incubated for 48 hrs in presence of gamabufotalin by immunoblot analysis. The class given is functional, cell-based. On the technique in general: Immunoblotting shows a protein as a band on a membrane.
Experiment [3] has as its system Hep 3B2. In words: Induction of autophagy in human Hep3B cells assessed as rescue of mTOR phosphorylation level at upto 10 nM incubated for 48 hrs in presence of gamabufotalin by immunoblot method. The class given is functional, cell-based.
Experiment [4] deals with Hep 3B2. In words: Induction of apoptosis in human Hep3B cells assessed as early apoptotic cells at 25 nM incubated for 48 hrs in presence of 4,6-dimorpholino-N-(4-nitrophenyl)-1,3,5-triazin-2-amine by Annexin V-FITC/PI staining based flow cytometry method (reference value: 1.3%). The format is functional. (In flow cytometry, cells or beads pass a laser one at a time.)
The test system of experiment [5] is Huh-7. Nature of the experiment: Induction of autophagy in human Huh-7 cells assessed as reduction in autophagic vesicles at 25 nM incubated for 48 hrs in presence of 4,6-dimorpholino-N-(4-nitrophenyl)-1,3,5-triazin-2-amine by transmission electron microscopy based analysis. The class given is functional, cell-based.
For experiment [6], the system named is Huh-7. In words: Induction of apoptosis in human Huh-7 cells assessed as condensed nuclei at upto 25 uM incubated for 48 hrs by Hoechst33258 staining based fluorescence microscopy. The format is functional, cell-based.
Experiment [7] has as its system Huh-7. Nature of the experiment: Induction of apoptosis in human Huh-7 cells assessed as late apoptotic cells at 20 nM incubated for 48 hrs by Annexin V-FITC/PI staining based flow cytometry method (reference value: 2.2%). The format is functional.
The subject of experiment [8] is Hep 3B2. In words: Induction of apoptosis in human Hep3B cells assessed as early apoptotic cells at 25 nM measured after 48 hrs by Annexin V-FITC/PI staining based flow cytometry method (reference value: 1.3%). The class given is functional.
Experiment [9] has as its system Hep 3B2. Nature of the experiment: Antitumor activity against human Hep3B cells xenografted in nude mouse model assessed as downregulation of m-TOR phosphorylation expression expression at 5 mg/kg,ip administered every second day for 3 weeks by Western blot analysis. The format is functional, organism-based. (In general: Xenograft models place foreign cells or tissue in a host animal.)

The subject of experiment [10] is Huh-7. In words: Induction of apoptosis in human Huh-7 cells assessed as upregulation of caspase-3 level […] incubated for 48 hrs in presence of 4,6-dimorpholino-N-(4-nitrophenyl)-1,3,5-triazin-2-amine by immunoblot analysis. The class given is functional, cell-based.
In experiment [11] the test system is Hep 3B2. Nature of the experiment: Antitumor activity against human Hep3B cells xenografted in nude mouse model assessed as decrease in tumor volume at 5 mg/kg,ip administered every second day for 3 weeks by vernier caliper method. The class given is functional, organism-based.
Experiment [12] deals with Hep 3B2. Nature of the experiment: Induction of apoptosis in human Hep3B cells assessed as late apoptotic cells at 25 nM incubated for 48 hrs in presence of 4,6-dimorpholino-N-(4-nitrophenyl)-1,3,5-triazin-2-amine by Annexin V-FITC/PI staining based flow cytometry method (reference value: 2.2%). The format is functional.
Experiment [13] relates to Hep 3B2. Nature of the experiment: Induction of apoptosis in human Hep3B cells assessed as increase in caspase-3 level at 25 nM incubated for 48 hrs in presence of chloroquine by immunoblot analysis. The format is functional, cell-based.
For experiment [14], the system named is Huh-7. Nature of the experiment: Induction of apoptosis in human Huh-7 cells assessed as late apoptotic cells at 25 nM incubated for 48 hrs by Annexin V-FITC/PI staining based flow cytometry method (reference value: 2.2%). The format is functional.
The subject of experiment [15] is Huh-7. Nature of the experiment: Induction of apoptosis in human Huh-7 cells assessed as early apoptotic cells at 25 nM measured after 48 hrs by annexin V-FITC/Propidium iodide staining based flow cytometric analysis (reference value: 2.2%). The format is functional.
For experiment [16], the system named is Hep 3B2. In words: Induction of apoptosis in human Hep3B cells assessed as late apoptotic cells at 25 nM incubated for 48 hrs by Annexin V-FITC/PI staining based flow cytometry method (reference value: 3.5%). The class given is functional.
The subject of experiment [17] is Huh-7. Nature of the experiment: Induction of autophagy in human Huh-7 cells assessed as reduction in ULK1 phosphorylation level incubated for 48 hrs by immunoblot method. The format is functional, cell-based. As to conditions: dose 0-25 nM.
Experiment [18] deals with Huh-7. Nature of the experiment: Induction of apoptosis in human Huh-7 cells assessed as upregulation of bax level […] incubated for 48 hrs in presence of 4,6-dimorpholino-N-(4-nitrophenyl)-1,3,5-triazin-2-amine by immunoblot analysis. The format is functional, cell-based.
Experiment [19] has as its system Huh-7. In words: Induction of apoptosis in human Huh-7 cells assessed as increase in cleaved caspase-3 level at 25 nM incubated for 48 hrs in presence of chloroquine by immunoblot analysis. The class given is functional, cell-based.
The test system of experiment [20] is Hep 3B2. In words: Induction of autophagy in human Hep3B cells assessed as downregulation of LC3II/LC3I ratio at 25 uM incubated for 48 hrs in presence of 4,6-dimorpholino-N-(4-nitrophenyl)-1,3,5-triazin-2-amine by immunoblot analysis. The format is functional, cell-based.
The subject of experiment [21] is Huh-7. In words: Induction of apoptosis in human Huh-7 cells assessed as viable cells at 25 nM incubated for 48 hrs in presence of chloroquine by Annexin V-FITC/PI staining based flow cytometry method (reference value: 91.5%). The format is functional. As to conditions: read-out: Activity.
The test system of experiment [22] is Huh-7. In words: Induction of apoptosis in human Huh-7 cells assessed as reduction in Bcl-2 level at 25 nM incubated for 48 hrs in presence of chloroquine by immunoblot analysis. The class given is functional, cell-based.
Experiment [23] has as its system Hep 3B2. Nature of the experiment: Induction of autophagy in human Hep3B cells assessed as reduction in mTOR phosphorylation level incubated for 48 hrs by immunoblot method. The format is functional, cell-based. As to conditions: dose 0-25 nM.
Experiment [24] deals with Hep 3B2. Nature of the experiment: Antitumor activity against human Hep3B cells xenografted in nude mouse model assessed as downregulation of Bcl-2 expression at 5 mg/kg,ip administered every second day for 3 weeks by Western blot analysis. The class given is functional, organism-based.
Experiment [25] relates to Hep 3B2. In words: Induction of apoptosis in human Hep3B cells assessed as necrotic cells at 25 nM incubated for 48 hrs by Annexin V-FITC/PI staining based flow cytometry method (reference value: 0.2%). The format is functional.
For experiment [26], the system named is Hep 3B2. In words: Induction of apoptosis in human Hep3B cells assessed as late apoptotic cells at 25 nM measured after 48 hrs in presence of Z-VAD-FMK by annexin V-FITC/Propidium iodide staining based flow cytometric analysis (reference value: 2.4%). The class given is functional.
Experiment [27] has as its system Hep 3B2. In words: Induction of autophagic flux in human Hep3B cells assessed as increase in high electron density vesicles at 25 nM incubated for 48 hrs by transmission electron microscopic analysis. The class given is functional, cell-based.
Experiment [28] has as its system Hep 3B2. Nature of the experiment: Induction of apoptosis in human Hep3B cells assessed as viable cells at 25 nM incubated for 48 hrs in presence of 4,6-dimorpholino-N-(4-nitrophenyl)-1,3,5-triazin-2-amine by Annexin V-FITC/PI staining based flow cytometry method (Rvb =95.7%). The class given is functional. Conditions: read-out: Activity.
Experiment [29] has as its system Hep 3B2. In words: Induction of autophagic flux in human Hep3B cells assessed as rescue of p62 at 25 uM incubated for 48 hrs in presence of chloroquine by Western blot analysis. The format is functional, cell-based.
Experiment [30] concerns Huh-7. Nature of the experiment: Induction of apoptosis in human Huh-7 cells assessed as necrotic cells at 25 nM incubated for 48 hrs by Annexin V-FITC/PI staining based flow cytometry method (reference value: 95.4%). The class given is functional.
Experiment [31] relates to Huh-7. In words: Induction of apoptosis in human Huh-7 cells assessed as necrotic cells at 25 nM measured after 48 hrs by annexin V-FITC/Propidium iodide staining based flow cytometric analysis (reference value: 0.0%). The class given is functional.
Experiment [32] has as its system Hep 3B2. In words: Induction of autophagic flux in human Hep3B cells assessed as decrease in p62 expression at upto 25 nM incubated for 48 hrs by Western blot analysis. The format is functional, cell-based.

Regarding `CCN(CC)CCCC(C)Nc1ccnc2cc(Cl)ccc12` (configuration not stated) [CHLOROQUINE], the result in the experiment with Huh-7 [1], with Huh-7 [2] and in the experiment with Hep 3B2 [3] was Active.
Take `C[C@]12CC[C@H](O)C[C@H]1CC[C@@H]1[C@@H]2[C@H](O)C[C@]2(C)[C@@H](c3ccc(=O)oc3)CC[C@]12O` [GAMABUFOTALIN]: the Activity in the experiment on Hep 3B2 [4] is 10.9%; in the experiment with Huh-7 [7], 28.8%; with Hep 3B2 [8], 11.4%; in the experiment with Hep 3B2 [12], 20.2%; in the experiment with Huh-7 [14] it was 31.1%; in the experiment on Huh-7 [15], 6.6%. Further, the Activity is 13.7% with Hep 3B2 [16]; “Dose-Dependent Effect” with Huh-7 [17]; “Dose-Dependent Effect” in the experiment on Hep 3B2 [23]; 0.6% in the experiment with Hep 3B2 [25]; 3.5% with Hep 3B2 [26]; 57.1% with Huh-7 [30]. Moreover, the Activity with Huh-7 [31] is 1.2%. For the same compound, the result in the experiment on Huh-7 [5], in the experiment on Huh-7 [6], in the experiment on Hep 3B2 [9], in the experiment with Huh-7 [10], in the experiment with Hep 3B2 [11] and in the experiment with Hep 3B2 [13] was Active. For the same compound, the outcome with Huh-7 [18], in the experiment on Huh-7 [19], in the experiment on Hep 3B2 [20], in the experiment on Huh-7 [22], with Hep 3B2 [24] and with Hep 3B2 [27] was Active. For the same compound, the result with Hep 3B2 [29] and in the experiment on Hep 3B2 [32] was Active. The viability at 0.025 µM was 65.4% in the experiment with Huh-7 [21] and 67.2% with Hep 3B2 [28].
